According to patent US12544374B2, “AZA-quinoline compounds and uses thereof” (Novartis AG, priority 2019, dated 2026):

Legend:
EZH2 = EZH2 (Homo sapiens (Human), UniProt Q15910); assay: ELISA (H3K27 methylation) assay in G401 cell; format: cell-based; conditions: (b) ELISA Qualified assay, 48 h
Method: Representative compounds of the invention were serially and separately diluted 3-fold in DO to obtain a total of eight or twelve concentrations. Then the compounds were added to G401 cell cultured in 384-well plate at 1:500 dilution to obtain the highest concentration of 20 μM. The cells were further cultured for 48 h before ELISA procedure.
ELISA protocol: Cell lysates were transferred to the wells of a 384-well plate and the final volume was adjusted to 50 μL per well with PBS. The plate was sealed, centrifuged at 2,000 rpm for 2 min and incubated at 4° C. for about 16 h. The plate was washed with TBST buffer (1×TBS (10×TBS: 24.2 g Tris (Sigma, T6066), 80 g NaCl (Sigma, S3014) to 1 L of water and adjust pH to 7.6 with HCl) with 0.1% Tween-20). Blocking buffer (TBST, 5% BSA; 50 μL per well) was added and the plate was incubated for 1 h at rt. The blocking buffer was removed and primary antibody was added (30 μL per well). […] The primary antibody was incubated in the plate at rt for 1 h. The wells were washed with TBST and incubated with secondary antibody for 1 h at rt.
After 1 h of incubation at rt, the wells were washed with TBST. […] The signal was read using a PerkinElmer Envision Reader. The H3K27 methylation readouts were normalized using H3 signal and then percentage inhibition was calculated against the samples treated with DO. The data were fit to a dose response curve using the program Helios to get the IC50 values of the test compound.

[1] = molecular target: wild type PRC2 (wtPRC2) complex (Homo sapiens (Human), UniProt Q15910); assay: EZH2 LC-MS assay (LC-Qualified); format: biochemical; conditions: (a) LC-Qualified assay
Method: Representative compounds of the invention were serially and separately diluted 3-fold in DMSO to obtain twelve concentrations. […] Solutions (6 μL) of 80 nM wild type PRC2 (wtPRC2) complex and 60 μM SAM in reaction buffer (20 mM Tris, pH 8.0, 0.1% BSA, 0.01% Triton, 0.5 mM DTT) were added to the wells that were then incubated with the test compound for 20 min. A 6 μL solution of 3 μM of the substrate peptide H3K27me1 (histone H3[21-44]-K27me1-biotin) and 6 μM regulatory peptide H3K27me3 (histone H3[21-44]-K27me3) in reaction buffer was added to initiate each reaction. […] The data were fit to a dose response equation using the program Helios to get the IC50 values of the test compound.

wild type PRC2 (wtPRC2) complex, sequence (Q15910 whole entry): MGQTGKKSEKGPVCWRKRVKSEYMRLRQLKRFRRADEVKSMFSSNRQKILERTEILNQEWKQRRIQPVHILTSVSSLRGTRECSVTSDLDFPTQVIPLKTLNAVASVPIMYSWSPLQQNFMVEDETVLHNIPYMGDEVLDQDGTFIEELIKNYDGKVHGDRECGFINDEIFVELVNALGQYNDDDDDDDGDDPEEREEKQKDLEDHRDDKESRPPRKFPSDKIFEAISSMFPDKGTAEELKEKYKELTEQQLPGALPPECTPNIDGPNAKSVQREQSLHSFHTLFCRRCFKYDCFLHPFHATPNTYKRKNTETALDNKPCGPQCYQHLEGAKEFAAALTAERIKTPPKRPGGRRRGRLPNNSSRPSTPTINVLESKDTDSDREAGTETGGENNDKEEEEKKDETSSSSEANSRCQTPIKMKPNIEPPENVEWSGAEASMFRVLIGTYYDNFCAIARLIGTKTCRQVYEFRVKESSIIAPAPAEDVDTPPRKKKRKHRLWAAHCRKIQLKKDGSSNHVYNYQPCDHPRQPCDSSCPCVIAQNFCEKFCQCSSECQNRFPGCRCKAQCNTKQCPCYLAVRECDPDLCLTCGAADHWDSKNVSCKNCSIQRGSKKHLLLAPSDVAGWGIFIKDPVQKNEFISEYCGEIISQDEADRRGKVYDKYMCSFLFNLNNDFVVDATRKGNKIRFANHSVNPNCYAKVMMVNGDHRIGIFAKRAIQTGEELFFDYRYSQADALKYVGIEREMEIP
wild type PRC2 (wtPRC2) complex, sequence (Q15022 whole entry partner): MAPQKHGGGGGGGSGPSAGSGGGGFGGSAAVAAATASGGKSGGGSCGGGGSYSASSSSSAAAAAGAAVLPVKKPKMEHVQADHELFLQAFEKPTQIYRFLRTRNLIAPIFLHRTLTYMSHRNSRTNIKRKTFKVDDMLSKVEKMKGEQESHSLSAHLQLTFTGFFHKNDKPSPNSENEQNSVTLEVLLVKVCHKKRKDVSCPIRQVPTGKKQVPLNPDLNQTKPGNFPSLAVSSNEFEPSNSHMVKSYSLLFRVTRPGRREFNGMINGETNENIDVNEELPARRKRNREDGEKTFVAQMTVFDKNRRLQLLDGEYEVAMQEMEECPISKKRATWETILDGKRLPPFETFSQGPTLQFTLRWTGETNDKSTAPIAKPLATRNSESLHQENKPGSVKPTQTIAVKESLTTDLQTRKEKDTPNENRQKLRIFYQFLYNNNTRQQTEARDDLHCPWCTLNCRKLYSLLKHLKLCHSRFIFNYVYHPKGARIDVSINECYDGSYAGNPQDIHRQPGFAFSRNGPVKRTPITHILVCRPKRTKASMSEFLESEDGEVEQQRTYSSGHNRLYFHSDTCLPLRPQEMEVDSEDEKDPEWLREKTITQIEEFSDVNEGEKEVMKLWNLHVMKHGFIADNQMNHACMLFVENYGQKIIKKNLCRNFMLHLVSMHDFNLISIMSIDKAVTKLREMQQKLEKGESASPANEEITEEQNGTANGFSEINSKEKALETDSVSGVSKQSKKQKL
wild type PRC2 (wtPRC2) complex, sequence (O75530 whole entry partner): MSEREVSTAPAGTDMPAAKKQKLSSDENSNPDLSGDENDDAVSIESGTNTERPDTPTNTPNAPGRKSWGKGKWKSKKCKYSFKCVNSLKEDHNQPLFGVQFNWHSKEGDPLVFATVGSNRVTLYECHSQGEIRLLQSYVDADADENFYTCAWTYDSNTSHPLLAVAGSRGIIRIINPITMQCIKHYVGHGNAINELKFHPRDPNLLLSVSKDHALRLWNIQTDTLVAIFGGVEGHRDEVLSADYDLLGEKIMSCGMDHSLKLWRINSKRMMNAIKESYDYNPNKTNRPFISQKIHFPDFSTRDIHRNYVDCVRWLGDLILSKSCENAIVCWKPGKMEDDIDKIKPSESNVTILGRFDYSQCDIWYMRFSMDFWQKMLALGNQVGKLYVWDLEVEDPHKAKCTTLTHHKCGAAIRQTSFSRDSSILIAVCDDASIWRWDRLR
wild type PRC2 (wtPRC2) complex, sequence (Q09028 whole entry partner): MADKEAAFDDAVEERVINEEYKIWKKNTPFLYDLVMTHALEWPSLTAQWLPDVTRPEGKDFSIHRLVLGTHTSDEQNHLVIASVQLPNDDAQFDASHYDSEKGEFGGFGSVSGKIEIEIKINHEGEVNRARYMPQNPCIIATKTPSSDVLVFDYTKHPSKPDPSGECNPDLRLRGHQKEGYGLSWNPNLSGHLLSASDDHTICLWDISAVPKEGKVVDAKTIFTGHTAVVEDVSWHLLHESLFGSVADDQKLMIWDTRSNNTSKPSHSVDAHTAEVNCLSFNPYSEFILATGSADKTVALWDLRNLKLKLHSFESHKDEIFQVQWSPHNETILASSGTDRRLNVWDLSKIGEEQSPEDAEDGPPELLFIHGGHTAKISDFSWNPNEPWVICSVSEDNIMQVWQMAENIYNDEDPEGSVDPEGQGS
wild type PRC2 (wtPRC2) complex, sequence (Q6ZN18 whole entry partner): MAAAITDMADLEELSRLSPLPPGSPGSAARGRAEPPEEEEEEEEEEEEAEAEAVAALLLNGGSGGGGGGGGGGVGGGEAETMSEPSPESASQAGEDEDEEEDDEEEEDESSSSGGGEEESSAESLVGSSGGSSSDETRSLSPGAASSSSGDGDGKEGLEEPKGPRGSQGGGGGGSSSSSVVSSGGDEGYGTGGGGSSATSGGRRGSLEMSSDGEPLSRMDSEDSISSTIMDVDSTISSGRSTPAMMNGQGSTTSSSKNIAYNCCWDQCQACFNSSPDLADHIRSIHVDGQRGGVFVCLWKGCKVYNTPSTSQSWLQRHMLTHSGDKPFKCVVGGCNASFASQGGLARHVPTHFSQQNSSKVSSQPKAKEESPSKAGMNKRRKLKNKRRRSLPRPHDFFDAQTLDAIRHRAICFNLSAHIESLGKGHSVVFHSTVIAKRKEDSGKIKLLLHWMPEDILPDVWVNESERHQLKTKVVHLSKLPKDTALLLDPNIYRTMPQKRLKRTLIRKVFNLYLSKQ
EZH2, sequence (Q15910 whole entry): as the sequence (Q15910 whole entry) above
EZH2, sequence (Q15022 whole entry partner): as the sequence (Q15022 whole entry partner) above
EZH2, sequence (O75530 whole entry partner): as the sequence (O75530 whole entry partner) above
EZH2, sequence (Q09028 whole entry partner): as the sequence (Q09028 whole entry partner) above

| Molecule | IC50 (EZH2) | IC50 [1] |
| --- | --- | --- |
| 2-methoxyethyl (2-((((1,4-trans)-4-((8-chloro-1,7-naphthyridin-2-yl)amino)cyclohexyl)methyl)amino)pyrimidin-5-yl)carbamate [Compound C16] | 0.027 µM | 0.015 µM |
| COc1nccc2ccc(N[C@H]3CC[C@H](CNc4ncc(C(N)=O)cn4)CC3)nc12 [Compound C5, 2-((((1,4-trans)-4-((8-methoxy-1,7-naphthyridin-2-yl)amino)cyclohexyl)methyl)amino)pyrimidine-5-carboxamide] | 0.062 µM | 0.063 µM |
| COc1nccc2ccc(N[C@H]3CC[C@H](CNc4ncc(NC(=O)CO)cn4)CC3)nc12 [Compound C7, 2-hydroxy-N-(2-((((1,4-trans)-4-((8-methoxy-1,7-naphthyridin-2-yl)amino)cyclohexyl)methyl)amino)pyrimidin-5-yl)acetamide] | 0.131 µM | 0.111 µM |
| COc1nccc2ccc(N[C@H]3CC[C@H](CNc4ncc(C(=O)N5CCOCC5)cn4)CC3)nc12 [Compound C10, (2-((((1,4-trans)-4-((8-methoxy-1,7-naphthyridin-2-yl)amino)cyclohexyl)methyl)amino)pyrimidin-5-yl)(morpholino)methanone] | 0.191 µM | 0.194 µM |
| O=C(CO)Nc1cnc(NC[C@H]2CC[C@H](Nc3ccc4ccnc(Cl)c4n3)CC2)nc1 [Compound C19, N-(2-((((1,4-trans)-4-((8-chloro-1,7-naphthyridin-2-yl)amino)cyclohexyl)methyl)amino)pyrimidin-5-yl)-2-hydroxyacetamide] | 0.069 µM | – |
| O=C(CCC(=O)N1CCOCC1)Nc1cnc(NC[C@H]2CC[C@H](Nc3ccc4ccnc(Cl)c4n3)CC2)nc1 [Compound C20, N-(2-((((1,4-trans)-4-((8-chloro-1,7-naphthyridin-2-yl)amino)cyclohexyl)methyl)amino)pyrimidin-5-yl)-4-morpholino-4-oxobutanamide] | 0.127 µM | 0.068 µM |
| O=C(c1cnc(NC[C@H]2CC[C@H](Nc3ccc4ccnc(Cl)c4n3)CC2)nc1)N1CCOCC1 [Compound C22, (2-((((1,4-trans)-4-((8-chloro-1,7-naphthyridin-2-yl)amino)cyclohexyl)methyl)amino)pyrimidin-5-yl)(morpholino)methanone] | 0.188 µM | 0.046 µM |
| O=C(c1cnc(NC[C@H]2CC[C@H](Nc3ccc4ccnc(Cl)c4n3)CC2)nc1)N1CCNCC1 [Compound C24, (2-((((1,4-trans)-4-((8-chloro-1,7-naphthyridin-2-yl)amino)cyclohexyl)methyl)amino)pyrimidin-5-yl)(piperazin-1-yl)methanone] | 0.296 µM | 0.112 µM |
| OC1CN(Cc2cnc(NC[C@H]3CC[C@H](Nc4ccc5ccnc(Cl)c5n4)CC3)nc2)C1 [Compound C29, 1-((2-((((1,4-trans)-4-((8-chloro-1,7-naphthyridin-2-yl)amino)cyclohexyl)methyl)amino)pyrimidin-5-yl)methyl)azetidin-3-ol] | 0.022 µM | 0.02 µM |
| Clc1nccc2ccc(NC3CCC(CNc4ncc(COC5COC5)cn4)CC3)nc12 (stereo not drawn) [Compound C35, 8-chloro-N-((1,4-trans)-4-(((5-((oxetan-3-yloxy)methyl)pyrimidin-2-yl)amino)methyl)cyclohexyl)-1,7-naphthyridin-2-amine] | 0.024 µM | – |

The remaining molecules from weak to strong by IC50 (EZH2), led by results:

| IC50 (EZH2) | IC50 [1] | Molecule |
| --- | --- | --- |
| 0.783 µM | 0.087 µM | COc1nccc2ccc(N[C@H]3CC[C@H](CNc4ncc(NC(=O)C5CNC5)cn4)CC3)nc12 [Compound C2, N-(2-((((1,4-trans)-4-((8-methoxy-1,7-naphthyridin-2-yl)amino)cyclohexyl)methyl)amino)pyrimidin-5-yl)azetidine-3-carboxamide] |
| 0.285 µM | 0.023 µM | O=C(NC1COC1)c1cnc(NC[C@H]2CC[C@H](Nc3ccc4ccnc(Cl)c4n3)CC2)nc1 [Compound C25, 2-((((1,4-trans)-4-((8-chloro-1,7-naphthyridin-2-yl)amino)cyclohexyl)methyl)amino)-N-(oxetan-3-yl)pyrimidine-5-carboxamide] |
| 0.136 µM | 0.035 µM | CC(C(=O)N1CC(O)C1)c1cnc(NC[C@H]2CC[C@H](Nc3ccc4ccnc(Cl)c4n3)CC2)nc1 (mixture of isomers) [Compound C69, 2-(2-((((1,4-trans)-4-((8-chloro-1,7-naphthyridin-2-yl)amino)cyclohexyl)methyl)amino)pyrimidin-5-yl)-1-(3-hydroxyazetidin-1-yl)propan-1-one] |
| 0.061 µM | 0.105 µM | COc1nccc2ccc(N[C@H]3CC[C@H](CNc4ncc(C(=O)NCC(C)O)cn4)CC3)nc12 (stereo partly drawn) [Compound C9, N-(2-hydroxypropyl)-2-((((1,4-trans)-4-((8-methoxy-1,7-naphthyridin-2-yl)amino)cyclohexyl)methyl)amino)pyrimidine-5-carboxamide] |
| 0.056 µM | 0.116 µM | Nc1cnc(NC[C@H]2CC[C@H](Nc3ccc4ccnc(Cl)c4n3)CC2)nc1 [Compound C14, N^2-(((1,4-trans)-4-((8-chloro-1,7-naphthyridin-2-yl)amino)cyclohexyl)methyl)pyrimidine-2,5-diamine] |
| 0.052 µM | 0.075 µM | COc1nccc2ccc(N[C@H]3CC[C@H](CNc4ncc(-c5ncn[nH]5)cn4)CC3)nc12 [Compound C12, N-((1,4-trans)-4-(((5-(1H-1,2,4-triazol-5-yl)pyrimidin-2-yl)amino)methyl)cyclohexyl)-8-methoxy-1,7-naphthyridin-2-amine] |
| 0.04 µM | 0.04 µM | N#Cc1cnc(NC[C@H]2CC[C@H](Nc3ccc4ccnc(Cl)c4n3)CC2)nc1 [Compound C21, 2-((((1,4-trans)-4-((8-chloro-1,7-naphthyridin-2-yl)amino)cyclohexyl)methyl)amino)pyrimidine-5-carbonitrile] |
| 0.039 µM | 0.028 µM | O=C(Nc1cnc(NC[C@H]2CC[C@H](Nc3ccc4ccnc(Cl)c4n3)CC2)nc1)OCC1COC1 [Compound C18, Oxetan-3-ylmethyl (2-((((1,4-trans)-4-((8-chloro-1,7-naphthyridin-2-yl)amino)cyclohexyl)methyl)amino)pyrimidin-5-yl)carbamate] |
| 0.031 µM | 0.046 µM | COc1nccc2ccc(N[C@H]3CC[C@H](CNc4ncc(C#N)cn4)CC3)nc12 [Compound C4, 2-((((1,4-trans)-4-((8-methoxy-1,7-naphthyridin-2-yl)amino)cyclohexyl)methyl)amino)pyrimidine-5-carbonitrile] |
| 0.029 µM | 0.12 µM | COc1nccc2ccc(N[C@H]3CC[C@H](CNc4ncc(C(=O)N5CCN(C)CC5)cn4)CC3)nc12 [Compound C11, (2-((((1,4-trans)-4-((8-methoxy-1,7-naphthyridin-2-yl)amino)cyclohexyl)methyl)amino)pyrimidin-5-yl)(4-methylpiperazin-1-yl)methanone] |
| 0.025 µM | 0.054 µM | COc1nccc2ccc(N[C@H]3CC[C@H](CNc4ncc(NC(=O)C5CN(C)C5)cn4)CC3)nc12 [Compound C3, N-(2-((((1,4-trans)-4-((8-methoxy-1,7-naphthyridin-2-yl)amino)cyclohexyl)methyl)amino)pyrimidin-5-yl)-1-methylazetidine-3-carboxamide] |
| 0.013 µM | 0.042 µM | COc1nccc2ccc(N[C@H]3CC[C@H](CNc4ncc(CC(=O)NC5COC5)cn4)CC3)nc12 [Compound C13, 2-(2-((((1,4-trans)-4-((8-methoxy-1,7-naphthyridin-2-yl)amino)cyclohexyl)methyl)amino)pyrimidin-5-yl)-N-(oxetan-3-yl)acetamide] |
| 0.01 µM | 0.088 µM | O=C(Nc1cnc(NC[C@H]2CC[C@H](Nc3ccc4ccnc(Cl)c4n3)CC2)nc1)OCCO [Compound C17, 2-hydroxyethyl (2-((((1,4-trans)-4-((8-chloro-1,7-naphthyridin-2-yl)amino)cyclohexyl)methyl)amino)pyrimidin-5-yl)carbamate] |
| 0.006 µM | 0.012 µM | CS(=O)(=O)N1CCN(Cc2cnc(NC[C@H]3CC[C@H](Nc4ccc5ccnc(Cl)c5n4)CC3)nc2)CC1 [Compound C26, 8-chloro-N-((1,4-trans)-4-(((5-((4-(methylsulfonyl)piperazin-1-yl)methyl)pyrimidin-2-yl)amino)methyl)cyclohexyl)-1,7-naphthyridin-2-amine] |
| 0.002 µM | 0.054 µM | CC(C(=O)N(C)C1COC1)c1cnc(NC[C@H]2CC[C@H](Nc3ccc4ccnc(Cl)c4n3)CC2)nc1 (mixture of isomers) [Compound C55, 2-(2-((((1,4-trans)-4-((8-chloro-1,7-naphthyridin-2-yl)amino)cyclohexyl)methyl)amino)pyrimidin-5-yl)-N-methyl-N-(oxetan-3-yl)propanamide] |
